From PubChem BioAssay AID1963861 (Molecular Pharmacology Branch, DTP, NCI, 2024)

Tested on: 885724-159-R-J1-PDC KRAS PDC multicell spheroid viability
Assay: Anticancer human tumor 885724-159-R-J1-PDC patient-derived pancreatic adenocarcinoma cell line growth inhibition [KRAS2]
Details: for IC50: curve of first compound; for viability, T/C: stronger effect = lower value
Method in brief: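 Combination screen of spheroid viability in tumor-cell co-cultures with endothelial (HUVEC) and mesenchymal stem cell stroma. Each agent was tested in half-log dilutions, topping at clinical Cmax or at 10 microM without a known Cmax.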

[1] = second compound 0.1 µM, first compound 0.01 µM
[2] = second compound 0.1 µM, first compound 0.0316 µM
[3] = second compound 0.1 µM, first compound 0.1 µM
[4] = second compound 0.1 µM, first compound 0.316 µM
[5] = second compound 0.1 µM, first compound 1 µM
[6] = second compound 0.1 µM, first compound 3.16 µM
[7] = second compound 0.316 µM, first compound 0.01 µM
[8] = second compound 0.316 µM, first compound 0.0316 µM
[9] = second compound 0.316 µM, first compound 0.1 µM
[10] = second compound 0.316 µM, first compound 0.316 µM
[11] = second compound 0.316 µM, first compound 1 µM
[12] = second compound 0.316 µM, first compound 3.16 µM
[13] = second compound 1 µM, first compound 0.01 µM
[14] = second compound 1 µM, first compound 0.0316 µM
[15] = second compound 1 µM, first compound 0.1 µM
[16] = second compound 1 µM, first compound 0.316 µM
[17] = second compound 1 µM, first compound 1 µM
[18] = second compound 1 µM, first compound 3.16 µM
[19] = second compound 3.16 µM, first compound 0.01 µM
[20] = second compound 3.16 µM, first compound 0.0316 µM
[21] = second compound 3.16 µM, first compound 0.1 µM
[22] = second compound 3.16 µM, first compound 0.316 µM
[23] = second compound 3.16 µM, first compound 1 µM
[24] = second compound 3.16 µM, first compound 3.16 µM
[25] = second compound 10 µM, first compound 0.01 µM
[26] = second compound 10 µM, first compound 0.0316 µM
[27] = second compound 10 µM, first compound 0.1 µM
[28] = second compound 10 µM, first compound 0.316 µM
[29] = second compound 10 µM, first compound 1 µM
[30] = second compound 10 µM, first compound 3.16 µM
[31] = second compound 0.1 µM, first compound 0.00316 µM
[32] = second compound 0.316 µM, first compound 0.00316 µM
[33] = second compound 1 µM, first compound 0.00316 µM
[34] = second compound 3.16 µM, first compound 0.00316 µM
[35] = second compound 10 µM, first compound 0.00316 µM
[36] = second compound 0.1 µM, first compound 10 µM
[37] = second compound 0.316 µM, first compound 10 µM
[38] = second compound 1 µM, first compound 10 µM
[39] = second compound 3.16 µM, first compound 10 µM
[40] = second compound 10 µM, first compound 10 µM
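Further: spheroids exposed to agents for 7 days before readout.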

## CC1COCCN1c1cc(-c2ccnn2C)c2ccnc(-c3ccn[nH]3)c2n1 (stereo not given) + CNCc1ccccc1-c1csc(C(C)Nc2nc(C)nc3cc(OC)c(OC)cc23)c1
Second compound 0.1 µM
  IC50: > 3.16 µM
Second compound 0.316 µM
  IC50: > 3.16 µM
Second compound 1 µM
  IC50: > 3.16 µM
Second compound 3.16 µM
  IC50: < 0.01 µM
Second compound 10 µM
  IC50: < 0.01 µM
[1]
  viability, T/C: 108%
[2]
  viability, T/C: 85.3%
[3]
  viability, T/C: 80.1%
[4]
  viability, T/C: 61.4%
[5]
  viability, T/C: 58.8%
[6]
  viability, T/C: 58.8%
[7]
  viability, T/C: 108%
[8]
  viability, T/C: 90.4%
[9]
  viability, T/C: 73.8%
[10]
  viability, T/C: 64.2%
[11]
  viability, T/C: 57.8%
[12]
  viability, T/C: 57.4%
[13]
  viability, T/C: 106%
[14]
  viability, T/C: 84.4%
[15]
  viability, T/C: 75.1%
[16]
  viability, T/C: 64.7%
[17]
  viability, T/C: 55.7%
[18]
  viability, T/C: 56.8%
[19]
  viability, T/C: 2.14%
[20]
  viability, T/C: 0.77%
[21]
  viability, T/C: 0.58%
[22]
  viability, T/C: 0.86%
[23]
  viability, T/C: 1.55%
[24]
  viability, T/C: 1.97%
[25]
  viability, T/C: 0.21%
[26]
  viability, T/C: 0.23%
[27]
  viability, T/C: 0.26%
[28]
  viability, T/C: 0.24%
[29]
  viability, T/C: 0.22%
[30]
  viability, T/C: 0.28%

## CCN1CCN(Cc2ccc(Nc3ncc(F)c(-c4cc(F)c5nc(C)n(C(C)C)c5c4)n3)nc2)CC1 + CNCc1ccccc1-c1csc(C(C)Nc2nc(C)nc3cc(OC)c(OC)cc23)c1
Second compound 0.1 µM
  IC50: > 1 µM
Second compound 0.316 µM
  IC50: > 1 µM
Second compound 1 µM
  IC50: > 1 µM
Second compound 3.16 µM
  IC50: < 0.00316 µM
Second compound 10 µM
  IC50: < 0.00316 µM
[31]
  viability, T/C: 110%
[1]
  viability, T/C: 100%
[2]
  viability, T/C: 92.2%
[3]
  viability, T/C: 86.8%
[4]
  viability, T/C: 87.2%
[5]
  viability, T/C: 96.9%
[32]
  viability, T/C: 106%
[7]
  viability, T/C: 94.8%
[8]
  viability, T/C: 78.2%
[9]
  viability, T/C: 83.4%
[10]
  viability, T/C: 94%
[11]
  viability, T/C: 90.9%
[33]
  viability, T/C: 95%
[13]
  viability, T/C: 96.3%
[14]
  viability, T/C: 76.6%
[15]
  viability, T/C: 78.3%
[16]
  viability, T/C: 74.8%
[17]
  viability, T/C: 71.2%
[34]
  viability, T/C: 0.67%
[19]
  viability, T/C: 1.81%
[20]
  viability, T/C: 0.79%
[21]
  viability, T/C: 4.1%
[22]
  viability, T/C: 0.68%
[23]
  viability, T/C: 0.56%
[35]
  viability, T/C: 0.19%
[25]
  viability, T/C: 0.32%
[26]
  viability, T/C: 0.2%
[27]
  viability, T/C: 0.19%
[28]
  viability, T/C: 0.19%
[29]
  viability, T/C: 0.28%

## CCNC(=O)CC1N=C(c2ccc(Cl)cc2)c2cc(OC)ccc2-n2c(C)nnc21 (stereo not given) + CNCc1ccccc1-c1csc(C(C)Nc2nc(C)nc3cc(OC)c(OC)cc23)c1
Second compound 0.1 µM
  IC50: > 10 µM
Second compound 0.316 µM
  IC50: > 10 µM
Second compound 1 µM
  IC50: > 10 µM
Second compound 3.16 µM
  IC50: < 0.0316 µM
Second compound 10 µM
  IC50: < 0.0316 µM
[2]
  viability, T/C: 122%
[3]
  viability, T/C: 114%
[4]
  viability, T/C: 77.3%
[5]
  viability, T/C: 63.2%
[6]
  viability, T/C: 53.7%
[36]
  viability, T/C: 52.5%
[8]
  viability, T/C: 118%
[9]
  viability, T/C: 113%
[10]
  viability, T/C: 81.9%
[11]
  viability, T/C: 61.8%
[12]
  viability, T/C: 55.1%
[37]
  viability, T/C: 48.3%
[14]
  viability, T/C: 110%
[15]
  viability, T/C: 116%
[16]
  viability, T/C: 79.1%
[17]
  viability, T/C: 59.7%
[18]
  viability, T/C: 52.6%
[38]
  viability, T/C: 49.7%
[20]
  viability, T/C: 1.45%
[21]
  viability, T/C: 11.5%
[22]
  viability, T/C: 1.37%
[23]
  viability, T/C: 1.56%
[24]
  viability, T/C: 0.16%
[39]
  viability, T/C: 0.43%
[26]
  viability, T/C: 0.33%
[27]
  viability, T/C: 0.2%
[28]
  viability, T/C: 0.25%
[29]
  viability, T/C: 0.16%
[30]
  viability, T/C: 0.18%
[40]
  viability, T/C: 0.26%

## CC(=O)OC12COC1CC(O)C1(C)C(=O)C(O)C3=C(C)C(OC(=O)C(O)C(NC(=O)OC(C)(C)C)c4ccccc4)CC(O)(C(OC(=O)c4ccccc4)C21)C3(C)C (stereo not given) + COc1cc2nc(C)nc(NC(C)c3cc(N)cc(C(F)(F)F)c3)c2cc1OC1CCOC1
Second compound 0.1 µM
  IC50: > 3.16 µM
Second compound 0.316 µM
  IC50: > 3.16 µM
Second compound 1 µM
  IC50: > 3.16 µM
Second compound 3.16 µM
  IC50: > 3.16 µM
Second compound 10 µM
  IC50: > 3.16 µM
[1]
  viability, T/C: 105%
[2]
  viability, T/C: 116%
[3]
  viability, T/C: 113%
[4]
  viability, T/C: 122%
[5]
  viability, T/C: 135%
[6]
  viability, T/C: 132%
[7]
  viability, T/C: 104%
[8]
  viability, T/C: 112%
[9]
  viability, T/C: 116%
[10]
  viability, T/C: 125%
[11]
  viability, T/C: 120%
[12]
  viability, T/C: 126%
[13]
  viability, T/C: 104%
[14]
  viability, T/C: 130%
[15]
  viability, T/C: 127%
[16]
  viability, T/C: 132%
[17]
  viability, T/C: 142%
[18]
  viability, T/C: 141%
[19]
  viability, T/C: 95.1%
[20]
  viability, T/C: 104%
[21]
  viability, T/C: 121%
[22]
  viability, T/C: 111%
[23]
  viability, T/C: 119%
[24]
  viability, T/C: 119%
[25]
  viability, T/C: 90.2%
[26]
  viability, T/C: 105%
[27]
  viability, T/C: 119%
[28]
  viability, T/C: 121%
[29]
  viability, T/C: 117%
[30]
  viability, T/C: 111%

## CN(C)C/C=C/C(=O)Nc1cc2c(Nc3ccc(F)c(Cl)c3)ncnc2cc1O[C@H]1CCOC1 + COc1cc2nc(C)nc(NC(C)c3cc(N)cc(C(F)(F)F)c3)c2cc1OC1CCOC1
Second compound 0.1 µM
  IC50: > 0.1 µM
Second compound 0.316 µM
  IC50: > 0.1 µM
Second compound 1 µM
  IC50: > 0.1 µM
Second compound 3.16 µM
  IC50: > 0.1 µM
Second compound 10 µM
  IC50: > 0.1 µM
Second compound 0.1 µM, first compound 0.000316 µM
  viability, T/C: 116%
Second compound 0.1 µM, first compound 0.001 µM
  viability, T/C: 103%
[31]
  viability, T/C: 97.1%
[1]
  viability, T/C: 88.9%
[2]
  viability, T/C: 79.6%
[3]
  viability, T/C: 69.2%
Second compound 0.316 µM, first compound 0.000316 µM
  viability, T/C: 98.7%
Second compound 0.316 µM, first compound 0.001 µM
  viability, T/C: 102%
[32]
  viability, T/C: 92.9%
[7]
  viability, T/C: 89%
[8]
  viability, T/C: 67.3%
[9]
  viability, T/C: 66.7%
Second compound 1 µM, first compound 0.000316 µM
  viability, T/C: 96.4%
Second compound 1 µM, first compound 0.001 µM
  viability, T/C: 120%
[33]
  viability, T/C: 110%
[13]
  viability, T/C: 96%
[14]
  viability, T/C: 79.1%
[15]
  viability, T/C: 73.3%
Second compound 3.16 µM, first compound 0.000316 µM
  viability, T/C: 88.4%
Second compound 3.16 µM, first compound 0.001 µM
  viability, T/C: 102%
[34]
  viability, T/C: 80.3%
[19]
  viability, T/C: 72.5%
[20]
  viability, T/C: 68%
[21]
  viability, T/C: 61.8%
Second compound 10 µM, first compound 0.000316 µM
  viability, T/C: 87.1%
Second compound 10 µM, first compound 0.001 µM
  viability, T/C: 85.7%
[35]
  viability, T/C: 75.2%
[25]
  viability, T/C: 63.1%
[26]
  viability, T/C: 60%
[27]
  viability, T/C: 61.2%

## O=C(c1cc(Cc2n[nH]c(=O)c3ccccc23)ccc1F)N1CCN(C(=O)C2CC2)CC1 + COc1cc2nc(C)nc(NC(C)c3cc(N)cc(C(F)(F)F)c3)c2cc1OC1CCOC1
Second compound 0.1 µM
  IC50: > 10 µM
Second compound 0.316 µM
  IC50: > 10 µM
Second compound 1 µM
  IC50: > 10 µM
Second compound 3.16 µM
  IC50: > 10 µM
Second compound 10 µM
  IC50: > 10 µM
[2]
  viability, T/C: 129%
[3]
  viability, T/C: 122%
[4]
  viability, T/C: 110%
[5]
  viability, T/C: 113%
[6]
  viability, T/C: 98.2%
[36]
  viability, T/C: 95%
[8]
  viability, T/C: 113%
[9]
  viability, T/C: 106%
[10]
  viability, T/C: 104%
[11]
  viability, T/C: 103%
[12]
  viability, T/C: 98%
[37]
  viability, T/C: 91.5%
[14]
  viability, T/C: 129%
[15]
  viability, T/C: 134%
[16]
  viability, T/C: 132%
[17]
  viability, T/C: 115%
[18]
  viability, T/C: 111%
[38]
  viability, T/C: 91.4%
[20]
  viability, T/C: 91.4%
[21]
  viability, T/C: 102%
[22]
  viability, T/C: 94.8%
[23]
  viability, T/C: 95.2%
[24]
  viability, T/C: 91.9%
[39]
  viability, T/C: 81.7%
[26]
  viability, T/C: 97%
[27]
  viability, T/C: 102%
[28]
  viability, T/C: 98.4%
[29]
  viability, T/C: 92.5%
[30]
  viability, T/C: 107%
[40]
  viability, T/C: 93.3%
